Key:
Cavia porcellus [1] = test: Intravenous dose required for inhibition of [Nle10]-NKA4-10 induced bronchoconstriction in guinea pig; assay type: functional
Cavia porcellus [2] = test: Intraperitoneal dose required for inhibition of [Nle10]-NKA4-10 induced bronchoconstriction in guinea pig; assay type: functional; conditions: ip

CC(=O)NC1(c2ccccc2)CCN(CC[C@H](CN(C)C(=O)c2ccccc2)c2ccc(Cl)c(Cl)c2)CC1 [SAREDUTANT]
ED50 (Cavia porcellus [1]): 0.037 mg/kg
ED50 (Cavia porcellus [2]): 0.35 mg/kg

— ChEMBL document CHEMBL1127189, “A facile synthesis of the novel Neurokinin A antagonist SR 48968” (Bioorg Med Chem Lett, 1993)
